Source: ChEMBL document CHEMBL1145437, “Synthesis and biological evaluation of N-acetyl-beta-aryl-1,2-didehydroethylamines as new HIV-1 RT inhibitors in vitro” (Bioorg Med Chem Lett, 2007)
Calls of active or inactive are those of the source. The calls are words filed in the database; no cut-off is given here.

Columns and labels:
[1] = tested on: Human immunodeficiency virus 1; experiment: Inhibition of HIV1 reverse transcriptase at 200 ug/mL
[2] = Inhibition of HIV1 reverse transcriptase; design: species or system Human immunodeficiency virus 1
[3] = Cytotoxicity in human C8166 cells; type: cell-based
[4] = tested on: Human immunodeficiency virus 1; experiment: Antiviral activity against HIV1 assessed as syncytium reduction; type: functional, organism-based
[5] = Therapeutic index, Ratio of CC50 for human C8166 cells to EC50 for HIV1; type: cell-based; conditions: read-out: TI
[6] = tested on: Human immunodeficiency virus 1; experiment: Inhibition of HIV1 reverse transcriptase at 20 ug/mL

Row | Compound | inhibition [1] [%] | IC50 [2] [µM] | CC50 [3] [µM] | further results
1 | COc1ccccc1/C=C/[N+](=O)[O-] | 99.7 | 225 | 5 | –
2 | O=[N+]([O-])/C=C/c1ccccc1O | 98.2 | 540 | 18.8 | –
3 | Cc1ccc(/C=C/[N+](=O)[O-])cc1 | 36.9 | – | 15.2 | –
4 | CC(=O)N/C=C/c1ccccc1Br | 54.4 | – | 241 | EC50 [4]: 134 µM; selectivity ratio [5]: 1.8
5 | CC(=O)N/C=C/c1ccco1 | – | – | – | Activity [1]: inactive
6 | O=[N+]([O-])/C=C/c1ccccc1Br | 95.7 | 202 | 0.57 | –
7 | CC(=O)N/C=C/c1ccc(Cl)cc1 | – | – | – | Activity [1]: inactive
8 | O=[N+]([O-])/C=C/c1cccc(Br)c1 | 13.4 | – | – | –
9 | CC(=O)N/C=C/c1cccc(Cl)c1 | 10.7 | – | – | –
10 | O=[N+]([O-])/C=C/c1cccc2ccccc12 | 81.4 | 786 | 39.6 | –
11 | CC(=O)N(C)/C=C/c1ccc(Br)cc1 | – | – | – | Activity [1]: inactive
12 | CC(=O)N/C=C/c1ccccc1F | 36.2 | – | 341 | EC50 [4]: 383 µM; selectivity ratio [5]: < 1
13 | O=[N+]([O-])/C=C/c1ccccc1F | 95.4 | 365 | 2.8 | –
14 | CC(=O)N/C=C/c1ccsc1 | – | – | – | Activity [1]: inactive
15 | COc1ccc(/C=C/[N+](=O)[O-])c(OC)c1 | 86.3 | 553 | 5.4 | –
16 | COc1ccc(/C=C/NC(C)=O)cc1 | – | – | – | Activity [1]: inactive
17 | COc1ccccc1/C=C/NC(C)=O | – | – | – | Activity [1]: inactive
18 | CC(=O)N/C=C/c1ccc(F)cc1 | – | – | – | Activity [1]: inactive
19 | Cc1cn([C@H]2C[C@H](N=[N+]=[N-])[C@@H](CO)O2)c(=O)[nH]c1=O [ZIDOVUDINE] | – | – | > 5090 | EC50 [4]: 0.0108 µM; selectivity ratio [5]: > 471000
20 | CC(=O)N(C)/C=C/c1cccc(Br)c1 | 45.4 | 838 | 409 | EC50 [4]: 128 µM; selectivity ratio [5]: 3.2
21 | O=[N+]([O-])/C=C/c1ccccc1 [(2-NITROVINYL)BENZENE] | 99.7 | 87.9 | 13.6 | –
22 | O=[N+]([O-])/C=C/c1ccc(Cl)cc1 | 19.8 | – | – | –
23 | O=[N+]([O-])/C=C/c1ccc(F)cc1 | 22.9 | – | – | –
24 | O=[N+]([O-])/C=C/c1ccc(C(F)(F)F)cc1 | 29.4 | – | – | –
25 | CC(=O)N(C)/C=C/c1ccccc1Br | 85.3 | 339 | > 787 | EC50 [4]: 59.8 µM; selectivity ratio [5]: > 13.2
26 | Cc1ccccc1/C=C/[N+](=O)[O-] | 99.2 | 261 | 7.4 | –
27 | CC(=O)N/C=C/c1ccccc1C | 40.1 | – | 385 | EC50 [4]: 379 µM; selectivity ratio [5]: 1
28 | CC(=O)N(C)/C=C/c1ccccc1Cl | 75.2 | 434 | 441 | EC50 [4]: 95.9 µM; selectivity ratio [5]: 4.6

Row | Compound | inhibition [1] [%] | IC50 [2] [µM] | CC50 [3] [µM] | further results
29 | O=[N+]([O-])/C=C/c1ccc(O)cc1 | 96.4 | 553 | 15.8 | –
30 | O=C(O)P(=O)(O)O [FOSCARNET] | – | 1.3 | – | inhibition [6]: 96.5%
31 | CC(=O)N/C=C/c1ccc(O)cc1 | – | – | – | Activity [1]: inactive
32 | CC(=O)N(C)/C=C/c1ccccc1C | 79.8 | 487 | 609 | EC50 [4]: 116 µM; selectivity ratio [5]: 5.2
33 | COc1ccc(/C=C/NC(C)=O)c(OC)c1 | – | – | – | Activity [1]: inactive
34 | CC(=O)N/C=C/c1cc(C)c(C)cc1C | 25.4 | – | – | –
35 | COc1cc(OC)c(OC)cc1/C=C/[N+](=O)[O-] | 49.1 | > 837 | 4.7 | –
36 | O=[N+]([O-])/C=C/c1ccsc1 | 86.2 | 709 | 25.5 | –
37 | CC(=O)N/C=C/c1ccccc1O | 10.1 | – | – | –
38 | CC(=O)N/C=C/c1ccc(C(F)(F)F)cc1 | – | – | – | Activity [1]: inactive
39 | CC(=O)N/C=C/c1ccccc1 | 22.2 | – | – | –
40 | O=[N+]([O-])/C=C/c1cccc(Cl)c1 | 49.8 | > 1090 | 4.6 | –
41 | O=[N+]([O-])/C=C/c1ccc(Br)cc1 | 20.3 | – | 13.6 | –
42 | CC(=O)N/C=C/c1ccc(Br)cc1 | – | – | – | Activity [1]: inactive
43 | Cc1cc(C)c(/C=C/[N+](=O)[O-])cc1C | 31.5 | – | 6.9 | –
44 | CC(=O)N/C=C/c1cccc(Br)c1 | 41.5 | – | 134 | EC50 [4]: 89.3 µM; selectivity ratio [5]: 1.5
45 | CC(=O)N/C=C/c1ccc(C)cc1 | 16.6 | – | – | –
46 | O=[N+]([O-])/C=C/c1ccc2ccccc2c1 | 58.8 | 935 | 40.6 | –
47 | CC(=O)N/C=C/c1ccc2ccccc2c1 | 30.1 | – | 154 | EC50 [4]: 49.7 µM; selectivity ratio [5]: 3.1
48 | COc1ccc(/C=C/[N+](=O)[O-])cc1 | 93.5 | 561 | 6.3 | –
49 | CC(=O)N/C=C/c1ccccc1Cl | 34 | – | 297 | EC50 [4]: 124 µM; selectivity ratio [5]: 2.4
50 | CC(=O)N/C=C/c1cccc2ccccc12 | 26.5 | – | – | –
51 | COc1cc(OC)c(OC)cc1/C=C/NC(C)=O | – | – | – | Activity [1]: inactive
52 | CC(=O)N(C)/C=C/c1ccccc1F | 61.7 | 477 | 667 | EC50 [4]: 119 µM; selectivity ratio [5]: 5.6
53 | CC(=O)N/C=C\c1ccsc1 | 12 | – | – | –
54 | O=[N+]([O-])/C=C/c1ccco1 | 91.8 | 465 | 28.9 | –
55 | O=[N+]([O-])/C=C/c1ccccc1Cl | 99.3 | 361 | 3 | –
